From PubChem BioAssay (NCI) come the findings set out here.

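Growth conditions: 96-well plates. Treatment: test compound, 48 hours, 5 concentrations. Analysis: linear interpolation between bracketing concentrations; unreached endpoints set to highest concentration. At the GI50, growth is halved. TGI denotes the concentration required for complete inhibition of growth.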 A value given as a limit tells only on which side of the number the result lay.

Common to all, as to assay: NCI tumour cell line growth inhibition, 48 h
In experiment [1] the test system is A498 renal.
Experiment [2] relates to A549 NSCLC.
Experiment [3] relates to CCRF-CEM leukemia.
Experiment [4] relates to EKVX NSCLC.
Experiment [5] relates to HOP-62 NSCLC.
In experiment [6] the test system is HOP-92 NSCLC.
Experiment [7] deals with IGROV1 ovarian.
The test system of experiment [8] is MDA-MB-231 breast.
The subject of experiment [9] is NCI-H522 lung.
Experiment [10] has as its system SNB-19 CNS.

On to `COc1cc2c(cc1OC)C13CCN4CC5=CCOC(CC(=O)O)C(C5CC41)C3N2` (stereo not given), for which the TGI in experiment [1], in [2], in experiment [3], in experiment [4], in experiment [5] and in [6] was more than 100 µM each time. The TGI in experiment [7], in [8], in [9] and in [10] was more than 100 µM throughout.
As for `Cc1cc(N(CCCl)CCCl)ccc1C=Nc1cccnc1`, the GI50 in [1] is 0.237 µM; in experiment [2] it was 14.3 µM; in experiment [3], 6.75 µM; in experiment [4], 30 µM; in experiment [5], 10.5 µM; in experiment [6], 13.9 µM. Besides, the GI50 in experiment [7] was 4.97 µM; in experiment [8] it was 67.6 µM; in [9], 14.3 µM; in experiment [10], 59.9 µM. Moreover, the TGI was 0.833 µM in [1]; more than 100 µM in [2]; more than 100 µM in experiment [3]; 98.9 µM in [4]; more than 100 µM in experiment [5]; 68.2 µM in experiment [6]. For the same compound, the TGI was more than 84.1 µM in [7], more than 100 µM in [8], 38.1 µM in experiment [9] and more than 100 µM in [10].
Turning to `CC1(C)CCC(S(=O)(=O)c2ccc3c(c2)/C(=N\O)c2cc(S(=O)(=O)N4CCC(O)(c5cccc(C(F)(F)F)c5)CC4)ccc2-3)CC1`, the GI50 was 1.69 µM in experiment [1]; 0.034 µM in experiment [2]; 0.0291 µM in [3]; 0.0329 µM in experiment [4]; 0.0208 µM in [5]; 0.517 µM in [6]. For the same compound, the GI50 in experiment [7] was 0.0491 µM; in experiment [8], 0.0217 µM; in experiment [9], 0.0198 µM; in experiment [10], 0.0673 µM. Besides, the TGI in experiment [1] is 3.85 µM; in experiment [2], 1.05 µM; in [3] it was 0.0906 µM; in [4], 0.408 µM; in [5], 0.0489 µM; in experiment [6], 3.48 µM. Besides, the TGI in experiment [7] was found to be 1.07 µM; in experiment [8] it was 0.0438 µM; in experiment [9], 0.0452 µM; in experiment [10] it was 0.215 µM.
For the compound `COc1ccc2c(c1)C(=O)c1c-2c(NCCCN(C)C)nc2ccccc12`, the GI50 in experiment [1] was 11.3 µM; in [2], 1.86 µM; in [3] it was 1.48 µM; in experiment [4] it was 5.54 µM; in experiment [5], 5.93 µM; in experiment [6], 1.15 µM. Further, the GI50 in experiment [7] was 6.99 µM; in experiment [8], 1.98 µM; in [9] it was 9.79 µM; in experiment [10], 7.44 µM. The TGI in [1] was found to be 23.8 µM; in experiment [2], 6 µM; in experiment [3], 3.47 µM; in [4] it was 23.1 µM; in experiment [5], 19.9 µM; in experiment [6], 8.6 µM. The TGI in experiment [7] turned out to be 19.9 µM; in experiment [8], 11.6 µM; in experiment [9], 23.4 µM; in experiment [10], 21.2 µM.
As to `O=C(NNc1nc2cc(F)ccc2n2c(CN3CCOCC3)ccc12)c1ccccc1`, the GI50 in experiment [1] was 0.495 µM; in experiment [2] it was 0.303 µM; in [3], 0.0978 µM; in [4], 0.142 µM; in experiment [5] it was 0.117 µM; in experiment [6], 0.791 µM. Moreover, the GI50 in [7] is 0.139 µM; in [8], 0.443 µM; in experiment [9] it was 0.369 µM; in [10] it was 0.311 µM. For the same compound, the TGI in [1] was found to be 2.26 µM; in [2], 2.25 µM; in experiment [3], 4.44 µM; in experiment [4], 1.7 µM; in experiment [5], 4.03 µM; in experiment [6], 2.87 µM. The TGI in experiment [7] was found to be 1.47 µM; in [8] it was 2.45 µM; in [9] it was 3.52 µM; in [10], 2.27 µM.
For `C=CC1CC12C(=O)C1OC2(C)C2C(=O)c3ccccc3C(=O)C12` (stereo not given), the GI50 in [1] was more than 100 µM; in experiment [2], more than 60 µM; in experiment [3], 39.2 µM; in experiment [4], more than 100 µM; in experiment [5] it was more than 68 µM; in experiment [6] it was more than 77.6 µM. The GI50 in [7] was more than 69.3 µM; in experiment [8], 24.8 µM; in [9] it was more than 61.7 µM; in experiment [10] it was more than 47.7 µM. For the same compound, the TGI is more than 100 µM in [1]; more than 100 µM in experiment [2]; more than 93.9 µM in experiment [3]; more than 100 µM in experiment [4]; more than 100 µM in experiment [5]; more than 100 µM in [6]. The TGI was more than 100 µM in experiment [7], more than 100 µM in experiment [8], more than 100 µM in [9] and more than 84.7 µM in experiment [10].
Consider `Brc1c[n+](Cc2ccc3ccccc3c2)cn1Cc1ccc2ccccc2c1`, for which the GI50 is 1.88 µM in experiment [1]; 6.9 µM in [2]; 1.69 µM in experiment [3]; 9.93 µM in experiment [4]; 2.16 µM in experiment [5]; 0.904 µM in experiment [6]. The GI50 in experiment [7] was 0.676 µM; in [8], 1.4 µM; in experiment [9] it was 1.53 µM; in experiment [10], 1.41 µM. Further, the TGI in [1] was 5.09 µM; in [2], 29.4 µM; in experiment [3], 5.04 µM; in experiment [4], 25 µM; in experiment [5], 5.96 µM; in experiment [6], 2.39 µM. Also, the TGI in [7] came to 2.08 µM; in experiment [8], 2.86 µM; in [9], 3.85 µM; in experiment [10], 2.75 µM.
